In patent publication US20130085469A1, “TAUROLIDINE FORMULATIONS AND DELIVERY: THERAPEUTIC TREATMENTS AND ANTIMICROBIAL PROTECTION AGAINST BACTERIAL BIOFILM FORMATION” (priority 2004, published 2013):
Where two headings read alike, the source gives them in different places.

How the values were obtained:
[1] = Max tolerated dose and max potential delivery; format: in vivo; settings: calculated in footnote a
Excerpt: (§1) FIG. 1 illustrates the clearance of a typical antibiotic in the blood stream. It is a typical power decay curve after drug administration. Table 3 lists important variables which determine the biocidal effect on bacteria in the blood stream. The 5 factors in the upper portion of the table define the characteristics for Vancomycin, a typical antibiotic, and the characteristics for Taurolidine. Lower in the table is the portion called Surrogate Markers. These markers are Pharmacokinetic/Pharmacodynamic (PK/PD) values calculated from the concentration profiles in the body for specifics sites and drugs to guide therapy. The derived parameters have been estimated for Vancomycin (see FIG. 1, which is average values defined in the drug label with data obtained from human trials). Taurolidine Markers have been obtained from various literature sources. The Markers are useful in predicting antimicrobial drug efficacy in infection eradication. Of course, the values of the PK/PD parameters must be for the specific bacteria causing the infection and for the specific body site.

[2] = tested on: bacteria; settings: cited from earlier work
[3] = cited from earlier work
[4] = 30 g/day infused; cited from earlier work
[5] = over several years at room temperature; cited from earlier work
[6] = tested on: bacteria; settings: 25 years of clinical use and many in-vitro tests; cited from earlier work
[7] = tested on: typical bacteria; settings: cited from earlier work
[8] = in vivo; cited from earlier work
[9] = Pharmacokinetics, central blood values after IV dose; format: in vivo; settings: human, corresponds to first time constant 0.3
Excerpt: as §1
Kinetic parameters from Steinbach et al.^28 and infusion data from Willatts et al.^27 were used for the calculation. Taurolidine diffuses rapidly and body water concentration is equivalent to the plasma water concentration. […]

[10] = tested on: Planktonic form of bacteria; settings: cited from earlier work
[11] = tested on: clinically significant bacterial strains and some important fungi; settings: published test results; cited from earlier work
[12] = tested on: Burkholderia cepacia; settings: delivered to the lung via a nebulizer; cited from earlier work
[13] = Diffusion through silicone rubber catheter wall; format: physicochemical; settings: silicone rubber 2 mm ID, 0.5 mm wall, filled with water, 2% Taurolidine bath, UV-Vis
Protocol: 4. Taurolidine is a small molecule able to pass through human skin as well as through polymeric materials passively by diffusion which is driven by a concentration gradient. Experiments were conducted to determine if Taurolidine is able to diffuse through silicone rubber at a rate sufficient to achieve clinical significance. The experiment was conducted with a HD catheter-sized silicone rubber (i.e., 2 mm ID and 0.5 mm wall thickness). This was filled with water and capped off. It was immersed in a 2% Taurolidine bath. Within 3 days the inner volume equilibrated with the Taurolidine bath. The sensing instrument was a UV-Vis spectrometer.

[14] = cited from earlier work; remark: listed apart in the source
[15] = tested on: infection from HD catheters; settings: 2 controlled studies; cited from earlier work
[16] = tested on: typical bacteria; test: Minimum bactericidal concentration (MBC); format: cell-based
[17] = tested on: resistant Burkholderia cepacia; settings: isolates from adult cystic fibrosis patients; cited from earlier work

For `CN[C@H](CC(C)C)C(=O)N[C@H]1C(=O)N[C@@H](CC(N)=O)C(=O)N[C@H]2C(=O)N[C@H]3C(=O)N[C@H](C(=O)N[C@H](C(=O)O)c4cc(O)cc(O)c4-c4cc3ccc4O)[C@H](O)c3ccc(c(Cl)c3)Oc3cc2cc(c3O[C@@H]2O[C@H](CO)[C@@H](O)[C@H](O)[C@H]2O[C@H]2C[C@](C)(N)[C@H](O)[C@H](C)O2)Oc2ccc(cc2Cl)[C@H]1O` [Vancomycin], the “Max Tolerated Dose” value [1] is listed as >5 g/day (See footnote a), the “MIC (Minimum Inhibitory Concentration)” value [2] is listed as under 4 μg/mL^29 and the “Peak Plasma Concentration (CP)” value ([3]; average values from drug label, FIG. 1) is listed as 50 µg/mL. The “T1/2 (Drug Half Life in Blood)” value [3] was about 7 hours^30.
For `O=S1(=O)CCN(CN2CCS(=O)(=O)NC2)CN1` [Taurolidine, 4,4′ Methlyen-bis(tetrahydro-2H-1,4-thiadiazin-1,1dioxide)], the “benefit of Taurolidine infusion in sepsis syndrome” value [4] is listed as “No benefits”, the “decremental effect of Taurolidine infusion” value [4] is listed as “not shown any statistically significant decremental effect” and the “stability in powder or aqueous solution” value [5] is listed as “Taurolidine in powder or aqueous solution is stable”. The bacterial resistance [6] was 1. No Bacterial Resistance, the MBC [7] was “MBC than antibiotics. (i.e., MBC of 2 mg/ml vs. 2 ug/ml” and the “concentration producing pain in most tissue on contact” value [8] was at least 10000 µg/mL. The “pain on direct contact with most tissue” value [8] was “Direct contact with most tissue causes intense pain”, the half-life [9] was about 2.3 h and the “exposure to achieve killing action” value [10] was “Planktonic form of bacteria requires approximately 2 hours”. For the same compound, the “concentration needed to show minimum effectiveness” value [2] was over 0.05%, the “lower end range for MIC” value [2] was “approximately 0.5 mg/mL” and the “broad spectrum antimicrobial effect” value [11] was “Effective against substantially all clinically significant”. For the same compound, the “reduction in bacterial load” value [12] was “failure to achieve a significant reduction in bacterial load in most patients”, the “time for inner volume to equilibrate with the Taurolidine bath” value [13] was at most 3 days and the “Max Tolerated Dose” value [14] was over 30 g/day^27. For the same compound, the “Peak Plasma Concentration (CP)” value ([3]; cell adds: Not applicable for Taurolidine) was 150 μg/ml^28, the “T1/2 (Drug Half Life in Blood)” value ([3]; first value of 70/140, footnote b, time const 0.57) was about 70 min and the “T1/2 (Drug Half Life in Blood)” value ([3]; second value of 70/140, footnote b, first time constant 0.3) was about 140 min. For the same compound, the “reduction in infection compared to conventional heparin lock” value [15] was ~2 controlled studies resulted in approximately 95%, the “MBC relative to antibiotics” value [16] was “Taurolidine has an approximate 1000 times higher” and the in vitro response [17] was “positive response”.
